From US10596145B2, “Heterocyclic flavone derivatives, compositions, and methods related thereto” (Emory University, priority 2012, dated 2020)
Entries after “also recorded” stand apart in the source; their conditions may differ.

Assays:
TrkB [1] = molecular target: T1, TrkB (Rattus norvegicus, UniProt Q63604); assay: TrkB activation in primary cortical neurons (immunoblotting); type: cell-based; conditions: 500 nM, 15 min
T1 construct: endogenous in cells; host or cells: primary cortical neurons from E17 rat embryos
Experimental: Primary cortical cultures from E17 rat embryos were treated with 500 nM of various synthetic flavone derivatives for 15 min. The cell lysates (20 μg) were analyzed by the immunoblotting.
Rat primary neurons were treated with 500 nM various indicated compounds from 15 min. The neuronal lysates ([…]) were analyzed with various antibodies.
500 nM of different synthetic compounds were added to DIV 7 neurons for 15 min. The cell lysates were analyzed by immunoblotting with indicated p-Akt 473 antibodies.
Replacing the 3′-dimethylamino group or 4′-morpholino group was tested for TrkB agonistic activity. To compare the TrkB activation by these compounds, primary cortical cultures were prepared and treated them with 500 nM of various compounds for 15 min and collected the cell lysates. […] The p-Akt ELISA analysis results were similar to the TrkB activation pattern (FIG. 2B, lower panel).

TrkB [2] = molecular target: T2, TrkB (Mus musculus, UniProt P15209); assay: TrkB phosphorylation in mouse brain after oral administration (immunoblotting, immunohistochemistry); type: in vivo
T2 construct: from tissue; host or cells: mouse brain (hippocampus, cortex), C57BL/6
Experimental: One mg/kg of various indicated compounds were orally administrated into C57 BL/6J mice and TrkB phosphorylation and its downstream signaling cascades including Akt and MAPK in the hippocampus of mouse brain were analyzed by immunoblotting at 4 h. […] The downstream p-Akt and p-MAPK activity coupled to the TrkB activation patterns.
Time course assay with 4′-dimethylamino-7,8-imidazole flavone. One mg/kg of compound (i) and compound (m) were orally administrated into C57 BL/6J mice and TrkB phosphorylation and its downstream signaling cascades including Akt in mouse brain were analyzed by immunoblotting at various time points. TrkB activation by compound m peaked at 4 h, whereas the maximal TrkB activation by compound i in mouse brain occurred at 1-2 h. Arrows indicate the p-TrkB in mature glycosylated or unglycosylated forms (top panels). The downstream Akt activation pattern tightly correlated with the upstream TrkB activation.
(§1) Male C57BL/6 mice aged of two months were administrated orally with 4′-DMA-7,8-DHF derivatives at a single dose of 1 mg/kg for 4 h. The control mice were injected with saline. The mice were sacrificed and brains were homogenated and ultracentrafuged. The supernatant (40 μg) was employed for SDS-PAGE and immunoblotting analysis with indicated antibodies, respectively. Male C57BL/6 mice aged of two months were administrated orally with compound (i) or (m) at the dose of 5 mg/kg/day each and compound o or p at the dose of 2.5 mg/kg/day each for 21 days. BrdU (100 mg/kg) was i. p. injected two hours before the TrkB agonist treated animals were sacrificed and the hippocampal section lysates were analyzed by immunoblotting with p-TrkB and total TrkB antibodies, p-AKT ELISA.
Brain tissues were fixed in 4% paraformaldehyde overnight followed by paraffin embedding. Sections of 6 μm were cut. For immunohistochemical staining, brain sections were deparaffinized in xylene and rehydrated in graded alcohols. Endogenous peroxidase activity was blocked by 3% hydrogen peroxide for 5 min and all slides were boiled in 10 mM sodium citrate buffer (pH 6.0) for 10 min. Phosphorylated TrkB 816 and TrkB were detected using specific antibodies. Paraffin section were deparaffinized in xylene and rehydrated gradient ethanol solution. Samples were boiled in 10 mM sodium citrate buffer for 20 min for antigen retrieval purpose. Brain sections were incubated with anti-TrkB (BD Biosciences, San Jose, Calif.) 1:50, p-TrkB 1:300 dilution. Secondary antibody was applied using anti-rabbit-Alexa 594 (red), anti-mouse-fluorescein isothiocyanate (FITC) (green). DAPI (blue) was used for nuclear staining.

Akt = assay: Downstream Akt activation in mouse brain (p-Akt immunoblotting, p-Akt 473 ELISA); type: in vivo; conditions: 1 mg/kg oral
Experimental: PathScan Phospho-Akt1 (Ser473) Sandwich ELISA kit was purchased from Cell Signaling (Cat. #7160). 100 μl sample in sample diluent (supplied in the kit) was added to each well and incubated overnight at 4° C. After 4× wash with 200 ul wash buffer (supplied in the kit), 100 ul/well detection antibody was added and incubated for 1 hour at 37° C. After 4× wash, 100 μl of HRP-linked secondary antibody (supplied in the kit) was added and incubated for 30 minutes at 37° C. After a final wash, 100 μl of TMB substrate was added to each well and incubated for 10 minutes at 37° C. The reaction was stopped by adding 100 μl/well stop solution. Record the values of each well using microplate reader at 450 nm and 650 nm. The optical density was determined by the subtraction of the reading at 650 nm from the reading s at 450 nm.
as §1

TrkA = molecular target: T3, TrkA (Mus musculus, UniProt Q3UFB7); assay: TrkA activation in mouse brain (anti-p-TrkA 794 immunoblotting); type: in vivo; conditions: 5 mg/kg/day oral, chronically treated mice
T3 construct: from tissue; host or cells: mouse brain lysates of chronically treated C57BL/6J mice
Experimental: The brain lysates from above chronically treated mice were analyzed by immunoblotting with anti-p-TrkA 794 and p-TrkB 816.
as §1

C57BL/6J mice [3] = assay: Forced swim test; type: in vivo, mouse; conditions: 5 mg/kg oral once a day, 3 weeks
Experimental: Male C57BL/6J mice (6 mice/group) were orally administrated by gavage with 5 mg/kg compound (m) or compound (i) and vehicle solvent saline for 21 days and subjected to a forced swim test (6 min, immobility recorded in the last 4 min). Data are presented as mean±SEM. (n=6, ***P<0.0001 vs vehicle, Student t-test).
Forced swim test. Male C57BL/6J mice (8 mice/group) were orally administrated by gavage with 2.5 mg/kg compound o or compound p and vehicle solvent saline for 21 days and subjected to a forced swim test (6 min, immobility recorded in the last 4 min). […] Data are presented as mean±SEM.
Adult male mice (2-3 months old) were randomly submitted to a forced swim test without a preswim. Test compounds were orally administrated by gavage for 21 days. The mice were allowed to adapt to the test room for 2 days. The mice were placed in a clear glass cylinder with a diameter of 16 cm, half-filled with clear water at 24° C.

C57BL/6J mice [4] = assay: Locomotor activity assay; type: in vivo, mouse; conditions: 5 mg/kg oral, 21 days, tested at day 22
Experimental: The above drug-treated mice were subjected locomotor activity at day 22. […] Data are presented as mean±SEM.
Locomotor activity was assessed using an automated system (San Diego Instruments, La Jolla, Calif., USA) with photobeams that recorded ambulations (consecutive beam breaks). Drug-treated mice were placed in the locomotor chambers, and their activity was recorded for 2 h with 30 min interval.

T2 sequence (P15209 32-821): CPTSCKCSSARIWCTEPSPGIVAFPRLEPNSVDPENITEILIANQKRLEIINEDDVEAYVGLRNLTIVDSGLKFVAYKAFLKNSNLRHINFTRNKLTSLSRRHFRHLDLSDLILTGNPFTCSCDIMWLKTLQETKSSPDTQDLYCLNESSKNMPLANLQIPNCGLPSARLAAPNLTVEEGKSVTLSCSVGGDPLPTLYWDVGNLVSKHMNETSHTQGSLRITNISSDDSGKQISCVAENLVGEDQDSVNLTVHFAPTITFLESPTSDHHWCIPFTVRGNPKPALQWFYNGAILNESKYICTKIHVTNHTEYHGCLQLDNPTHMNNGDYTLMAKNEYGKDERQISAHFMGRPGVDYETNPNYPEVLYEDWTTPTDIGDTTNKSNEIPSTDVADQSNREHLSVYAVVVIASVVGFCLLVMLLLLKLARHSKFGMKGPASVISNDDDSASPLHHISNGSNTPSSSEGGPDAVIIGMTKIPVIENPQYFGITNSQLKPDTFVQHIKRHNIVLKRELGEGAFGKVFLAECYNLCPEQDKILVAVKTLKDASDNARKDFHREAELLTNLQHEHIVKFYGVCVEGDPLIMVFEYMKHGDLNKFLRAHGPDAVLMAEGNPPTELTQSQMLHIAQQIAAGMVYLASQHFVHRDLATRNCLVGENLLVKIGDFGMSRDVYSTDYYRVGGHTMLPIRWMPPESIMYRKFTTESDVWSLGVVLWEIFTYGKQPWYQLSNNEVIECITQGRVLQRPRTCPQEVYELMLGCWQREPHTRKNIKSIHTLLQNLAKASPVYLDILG
T1 sequence (Q63604 32-821): as the sequence (P15209 32-821) above, with T3M, S9T, A10T, V32I, R63K, S84G, M153T, L185I, S394T, S770N counted along it
T3 sequence (Q3UFB7 34-799): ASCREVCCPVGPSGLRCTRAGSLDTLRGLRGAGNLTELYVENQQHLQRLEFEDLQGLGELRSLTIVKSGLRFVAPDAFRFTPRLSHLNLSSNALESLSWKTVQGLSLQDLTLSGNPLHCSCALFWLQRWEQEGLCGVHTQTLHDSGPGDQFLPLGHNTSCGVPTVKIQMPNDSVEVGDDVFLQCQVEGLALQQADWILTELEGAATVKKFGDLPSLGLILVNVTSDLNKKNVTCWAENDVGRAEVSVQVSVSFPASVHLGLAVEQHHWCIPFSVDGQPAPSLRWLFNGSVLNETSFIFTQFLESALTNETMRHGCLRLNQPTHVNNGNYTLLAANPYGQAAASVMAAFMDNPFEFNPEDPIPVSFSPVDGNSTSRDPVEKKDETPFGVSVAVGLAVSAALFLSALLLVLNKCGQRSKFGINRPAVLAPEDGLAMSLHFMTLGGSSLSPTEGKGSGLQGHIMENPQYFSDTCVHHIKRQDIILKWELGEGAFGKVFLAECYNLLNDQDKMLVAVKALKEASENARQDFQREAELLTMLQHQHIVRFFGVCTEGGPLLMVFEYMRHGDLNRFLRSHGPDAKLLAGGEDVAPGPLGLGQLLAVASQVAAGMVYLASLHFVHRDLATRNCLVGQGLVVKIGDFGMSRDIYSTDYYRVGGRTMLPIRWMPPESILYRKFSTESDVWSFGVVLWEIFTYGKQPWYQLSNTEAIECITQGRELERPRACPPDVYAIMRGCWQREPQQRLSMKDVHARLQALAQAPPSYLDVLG

## CN(C)c1ccc(-c2cc(=O)c3ccc4nc[nH]c4c3o2)cc1 [compound m, 8-(4-(dimethylamino)phenyl)chromeno[7,8-d]imidazol-6(1H)-one]
TrkB [1]
  TrkB activation (p-TrkB immunoblotting): stronger effect in triggering TrkB activation than compound 4′-DMA-7,8-DHF
TrkB [1]; listed as 4′-Dimethylamino-7,8-imidazole flavone
  TrkB activation (p-TrkB immunoblotting): stronger TrkB stimulatory activity than compound a
TrkB [2]; 1 mg/kg oral, hippocampus, at 4 h
  TrkB activation in mouse brain: robustly activated TrkB; also recorded: strongest TrkB stimulatory effect
TrkB [2]; 1 mg/kg oral, time course
  time at which TrkB activation fades away: 16 h
  time of peak TrkB activation in mouse brain: 4 h
TrkB [2]; 5 mg/kg/day oral, 3 weeks, cortex and hippocampus
  TrkB phosphorylation after chronic treatment: escalated TrkB phosphorylation; also recorded: stronger effect than compound i
Akt; at 4 h
  downstream p-Akt and p-MAPK signalings: strongly activated
Akt; at 8 h
  p-Akt signal elevation compared to the control at peak: about 250%
Akt; time course
  time of peak p-Akt activation (p-Akt ELISA): 8 h
TrkA
  TrkA activation in mouse brain: not TrkA
C57BL/6J mice [3]
  immobility in forced swim test: decreased the immobility in FST; also recorded: significantly reduced the immobility; also recorded: more robust than that of compound i
C57BL/6J mice [4]
  locomotor activity: highly augmented the locomotor activity; also recorded: substantially augmented locomoter activity; also recorded: significantly increased the locomotor activity
